Test system: nitric oxide (NO) content in glutamate-damaged primary cultured rat cortical cells
Assay: Measurement of nitrite (Griess reagent), NO content
Format: cell-based
Conditions: compound 1 M (1 μM) for 1 hr before 100 M glutamate, 24 hr
Protocol: The content of nitrite isolated into culture broth from first cultured cortical cells was assayed by using Griess reagent by Dawson's method (Dawson V L, Brahbhatt H P, Mong J A and Dawson T M (1994) Expression of inducible nitric oxide synthase causes delayed neurotoxicity in primary neuronal-glial cortical cultures. Neuropharmacology 33: 1425-1430).
In case glutamate is treated to first cultured cortical cells of mice, formation of NO is increased. […] When schizandrin is treated at the 1 μM concentration, it decreased NO content increased by glutamate. […] When deoxyschizandrin, gomisin N and wuweizisu C are treated at 1 uM concentration to first cultured cortical cells toxicity-induced by glutamate, those maintained about 50% of normal state activity of GSH-px and glutathione decreased by glutamate and have protective activity on the activity of antioxidant enzymes.
Rat cortical cultures were treated with compounds at the concentration of 1 M for 1 hr before exposure to 100 M glutamate and then maintained for 24 hr. Values given represent the mean SD (n=3).

Compound: COc1cc2c(c(OC)c1OC)-c1c(cc(OC)c(OC)c1OC)C[C@](C)(O)[C@@H](C)C2 [schizandrin]
- Protection (NO content): 40.2%

— patent US6653344B2, “Pharmaceutical preparations containing a dibenzocyclooctane lignan derivative for treatment of neurodegenerative disease” (Elcom Bio Technology Co., Ltd., priority 2000, dated 2003)
